Measured values from the supplement of paper PMC10307832.

Columns and labels:
Assay in all cases: relative viability (nuclei count vs DMSO), 5 days (fraction); higher = more cells survive
[1] = compound: CN(c1ncccc1CNc1nc(Nc2ccc3c(c2)CC(=O)N3)ncc1C(F)(F)F)S(C)(=O)=O + CC(=O)c1c(C)c2cnc(Nc3ccc(N4CCNCC4)cn3)nc2n(C2CCCC2)c1=O [Palbociclib] (partner 0.5 µM)
Summary of the method: (§1)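 Relative viability was taken as the ratio of nuclei in treated wells to nuclei in vehicle wells. Lung cancer cell lines in 1536-well plates received compounds by pin tool one day after seeding, either one drug alone or a fixed anchor-drug dose plus five library-drug doses (not always all listed) in √10 steps. Nuclei were counted on 4× images after 5 days of treatment, and values are medians of duplicate plates.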

[2] = compound: CN(c1ncccc1CNc1nc(Nc2ccc3c(c2)CC(=O)N3)ncc1C(F)(F)F)S(C)(=O)=O + COc1cccc2cc(-c3nc([C@H]4CC[C@H](C(=O)O)CC4)n4ncnc(N)c34)[nH]c12 [OSI-027] (partner 0.5 µM)
Summary of the method: as §1

[3] = compound: CN(c1ncccc1CNc1nc(Nc2ccc3c(c2)CC(=O)N3)ncc1C(F)(F)F)S(C)(=O)=O + COc1cc2c(Oc3ccc(NC(=O)C4(C(=O)Nc5ccc(F)cc5)CC4)cc3F)ccnc2cc1OCCCN1CCOCC1 [Foretinib] (partner 0.25 µM)
Summary of the method: as §1

[4] = compound: CN(c1ncccc1CNc1nc(Nc2ccc3c(c2)CC(=O)N3)ncc1C(F)(F)F)S(C)(=O)=O
Summary of the method: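 Viability is treated-well nuclei as a fraction of vehicle-well nuclei, reported as the median across plates. Before counting, lung cancer cell lines were kept overnight at 37 °C in 1536-well plates, pinned with five √10-spaced library-drug doses on vehicle-anchored plates, and left 5 days without medium change, then fixed, permeabilised and Hoechst-stained in one step, imaged at 4× and counted by MetaXpress. A plate passed only if control CV was below 25% and at least one doubling occurred.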

Cell Line	relative viability ([1]; first compound 0.01 µM)	relative viability ([1]; first compound 0.03162 µM)	relative viability ([1]; first compound 0.1 µM)	relative viability ([1]; first compound 0.3162 µM)	relative viability ([1]; first compound 1 µM)	relative viability ([2]; first compound 0.01 µM)	relative viability ([2]; first compound 0.03162 µM)	relative viability ([2]; first compound 0.1 µM)	relative viability ([2]; first compound 0.3162 µM)	relative viability ([2]; first compound 1 µM)	relative viability ([3]; first compound 0.01 µM)	relative viability ([3]; first compound 0.03162 µM)	relative viability ([3]; first compound 0.1 µM)	relative viability ([3]; first compound 0.3162 µM)	relative viability ([3]; first compound 1 µM)	relative viability ([4]; 0.01 µM)	relative viability ([4]; 0.03162 µM)	relative viability ([4]; 0.1 µM)	relative viability ([4]; 0.3162 µM)	relative viability ([4]; 1 µM)
201T	0.35	0.348	0.354	0.343	0.323	0.658	0.702	0.741	0.663	0.648	1.06	1.09	1.09	0.928	1.02	1.02	0.951	0.911	0.949	0.961
A-427	0.529	0.491	0.516	0.546	0.491	0.472	0.553	0.504	0.44	0.475	1.04	1.18	1.01	1.16	1.07	1.01	1.02	0.944	1.02	1.05
ABC-1	0.608	0.609	0.725	0.814	0.676	0.424	0.537	0.432	0.498	0.499	1.11	1.2	1.01	0.92	0.936	0.947	0.818	0.926	0.899	0.879
BEN	0.461	0.472	0.48	0.499	0.434	0.294	0.293	0.276	0.304	0.284	0.815	0.608	0.618	0.587	0.845	1.05	1.06	1.03	1	1.02
CAL-12T	0.44	0.341	0.416	0.407	0.366	0.725	0.874	0.58	0.719	0.514	1.32	1.2	1.1	1.1	0.838	1.03	0.979	0.914	0.865	0.849
COR-L23	0.265	0.262	0.308	0.239	0.234	0.782	0.722	0.681	0.756	0.642	1.07	1.15	0.937	0.921	0.851	1.01	1.1	0.981	1	0.8
COR-L 105	0.426	0.411	0.41	0.427	0.376	0.668	0.784	0.747	0.615	0.583	1	1.27	0.989	0.848	0.773	1.04	0.955	0.945	0.874	0.92
Calu-6	–	–	–	–	–	–	–	–	–	–	0.936	0.989	0.808	0.955	0.812	1.06	0.99	0.945	0.961	0.863
ChaGo-K-1	0.942	0.955	0.917	0.785	0.877	0.537	0.566	0.544	0.538	0.659	0.968	0.894	0.946	0.935	0.782	0.963	1.08	0.948	0.96	1.02
EBC-1	–	–	–	–	–	–	–	–	–	–	0.107	0.119	0.102	0.105	0.0994	1.03	1.09	0.989	0.937	0.776
EKVX	0.369	0.372	0.359	0.285	0.352	0.757	0.711	0.618	0.685	0.614	0.815	0.924	1.15	0.741	0.802	0.971	1.08	0.945	0.883	0.88
EMC-BAC-2	0.494	0.503	0.518	0.511	0.491	0.377	0.364	0.339	0.418	0.371	0.933	1.18	0.989	0.944	0.943	1.02	0.921	0.938	0.948	0.948
EPLC-272H	0.366	0.357	0.358	0.353	0.299	0.276	0.294	0.305	0.344	0.279	0.569	0.776	0.727	0.844	0.69	0.948	0.955	1.01	1.18	0.875
H3255	0.312	0.316	0.345	0.327	0.295	0.606	0.611	0.488	0.568	0.598	0.88	0.818	0.867	0.981	0.769	0.974	1.07	0.95	0.906	0.972
HARA	0.211	0.276	0.231	0.203	0.247	0.54	0.481	0.524	0.612	0.55	1.06	0.864	0.905	0.871	0.664	0.943	0.757	0.937	0.874	0.787
HCC-15	0.709	0.747	0.65	0.609	0.583	0.748	0.699	0.675	0.626	0.527	0.968	1.06	0.963	0.951	0.916	1.02	1.06	0.888	0.908	0.853
HCC-44	0.83	0.953	0.943	0.907	0.867	0.575	0.491	0.496	–	0.703	–	–	–	–	–	0.956	0.941	0.917	1	0.984
HCC-78	0.419	0.46	0.462	0.487	0.408	0.378	0.399	0.36	0.421	0.353	0.543	0.571	0.533	0.562	0.514	0.993	1.02	0.807	0.862	0.739

Cell Line	relative viability ([1]; first compound 0.01 µM)	relative viability ([1]; first compound 0.03162 µM)	relative viability ([1]; first compound 0.1 µM)	relative viability ([1]; first compound 0.3162 µM)	relative viability ([1]; first compound 1 µM)	relative viability ([2]; first compound 0.01 µM)	relative viability ([2]; first compound 0.03162 µM)	relative viability ([2]; first compound 0.1 µM)	relative viability ([2]; first compound 0.3162 µM)	relative viability ([2]; first compound 1 µM)	relative viability ([3]; first compound 0.01 µM)	relative viability ([3]; first compound 0.03162 µM)	relative viability ([3]; first compound 0.1 µM)	relative viability ([3]; first compound 0.3162 µM)	relative viability ([3]; first compound 1 µM)	relative viability ([4]; 0.01 µM)	relative viability ([4]; 0.03162 µM)	relative viability ([4]; 0.1 µM)	relative viability ([4]; 0.3162 µM)	relative viability ([4]; 1 µM)
HCC-366	0.41	0.391	0.342	0.336	0.316	0.786	1.01	0.846	0.996	0.973	0.899	0.925	0.942	0.982	0.781	0.997	1.04	1.02	1	1.02
HCC-827	0.453	0.462	0.503	0.545	0.437	0.765	0.775	0.821	0.799	0.759	0.985	1.05	1.15	1.04	1.05	1.05	1.08	1.04	1.01	0.989
HOP-62	0.469	0.444	0.374	0.412	0.39	0.956	0.804	0.743	0.825	0.731	1.04	1.16	0.958	1.02	1.03	1.07	1.08	0.99	0.979	0.98
IA-LM	–	–	–	–	–	–	–	–	–	–	1.25	1.17	0.917	1.27	0.874	0.899	1.11	0.912	0.823	0.805
LC-2-ad	0.523	0.451	0.522	0.473	0.463	0.874	0.851	0.905	0.827	0.758	0.851	0.865	0.967	0.939	0.933	1.01	1.01	0.966	0.883	0.967
LCLC-97TM1	0.217	0.176	0.171	0.18	0.158	0.512	0.524	0.42	0.458	0.576	0.97	0.986	0.867	0.864	0.844	1	1.11	0.881	0.966	0.821
LCLC-103H	0.499	0.428	0.5	0.471	0.484	0.497	0.399	0.422	0.448	0.424	0.677	0.751	0.765	0.766	0.759	0.964	0.966	0.877	0.919	0.958
LK-2	0.784	0.723	0.666	0.662	0.717	0.198	0.157	0.244	0.205	0.18	1.02	1.06	1.21	1.3	1.52	1.05	1.24	1.03	1.08	1.1
LOU-NH91	0.521	0.512	0.534	0.52	0.492	0.714	0.82	0.685	0.823	0.801	0.945	1.02	0.88	1.04	0.999	1.04	0.976	0.925	1.02	1.02
LU99A	0.406	0.517	0.465	0.411	0.448	0.284	0.279	0.27	0.277	0.352	0.838	0.873	0.841	0.947	0.929	0.964	1.06	1.04	1.17	1.01
LXF-289	0.63	0.592	0.567	0.639	0.582	0.806	0.807	0.707	0.641	0.762	1.04	1.01	1.02	1.04	0.968	1.09	1.05	1.01	0.991	1.01
NCI-H596	–	–	–	–	–	0.698	0.799	0.664	0.731	0.669	0.848	0.859	0.863	0.806	0.861	0.977	0.917	1.02	0.886	0.94
NCI-H1299	–	–	–	–	–	–	–	–	–	–	1.12	1.1	1.05	1.09	1.08	1.02	1.04	1.04	0.986	1.01
NCI-H1563	–	–	–	–	–	0.78	0.79	0.771	0.788	0.753	0.996	0.907	1.04	0.899	0.863	1	0.962	0.947	0.808	0.938
NCI-H1648	0.264	0.274	0.224	0.242	0.207	0.28	0.237	0.266	0.25	0.24	–	–	–	–	–	0.773	0.512	0.585	0.634	0.458
NCI-H1703	–	–	–	–	–	–	–	–	–	–	0.37	0.3	0.36	0.332	0.349	0.955	0.931	0.861	1.08	0.905
NCI-H1792	0.627	0.783	0.63	0.637	0.602	0.787	0.892	0.736	0.697	0.688	–	–	–	–	–	0.925	0.983	0.888	0.975	0.992
